Reference: PMC8979682, “Synthesis, Antioxidant, and Antidiabetic Activities of Ketone Derivatives of Succinimide” (Evidence-based Complementary and Alternative Medicine : eCAM, 2022)
Values after ≈ are worked out from the molar mass of the structure shown.

What was measured:
[1] = test system: mice; experiment: oral glucose tolerance test (OGTT); type: in vivo; conditions: glucose 2 g/kg orally
Procedure: To perform OGTT mice fasted overnight were used including both control and treated mice. Glucose was administered orally at the dose of 2 g/kg against glibenclamide as standard drug. After administration of glucose, blood glucose level was calculated at time intervals of 0, 30, 60, and 120 min for assessment of the impact of exogenously given D-glucose on treated mice. OGTT was carried out 5 days before the completion of the study.
To perform OGTT, mice fasted overnight were used including both control and treated mice. Glucose was administered orally at the dose of 2 g/kg against glibenclamide as a standard drug. After administration of glucose, blood glucose level was calculated at time intervals of 0, 30, 60, and 120 min for assessment of the impact of exogenously given D-glucose on treated mice.

[2] = test system: diabetic mice (by alloxan); experiment: antidiabetic activity in diabetic mice (by alloxan); type: in vivo
Procedure: Alloxan was used for the induction of diabetes mellitus according to reported procedure. Recently prepared Alloxan (ALX) was injected intraperitoneally to animals, fasting for 16 h, at a single dose of (150 mg/kg). […] Only diabetic animals, having random blood glucose level more than 200 mg/dl, were selected for studies. All the experimental procedure were approved from the ethical committee department of pharmacy, University of Swabi via letter No; UOS-06/2021.
A total of 30 animals were used to determine the hypoglycemic effect of the synthesized derivatives of succinimide. The experimental animals were segregated in six groups […], having five (5) animals in each group. Group I was designated as normal group and was given normal saline I/P only. Group II was given Tween 80, and Group III was given standard drug (glibenclamide) after the induction of diabetes. Group IV, Group V, and Group VI were given the various doses of synthesized compounds, respectively. […]

[3] = DPPH scavenging activity; type: biochemical
Procedure: The antioxidant assay of the synthesized compounds was conducted following the previously reported method. A freshly prepared DPPH solution (50 μL of 1.0 × 10^−3 M) was added in methyl alcohol. Methanol was used as a control in this experiment. The prepared mixture was subjected to incubation at 25°C for 30 min. A decrease in the DPPH free radical concentration was calculated using a spectrophotometer at a wavelength of 517 nm. After incubation ascorbic acid was used as a positive control. The antioxidant activity was determined as a percent (%) of inhibition using the formula given:(1) percent inhibition=absorbancecontrol−absorbancesample/absorbancecontrol×100.

[4] = target: α-glucosidase; experiment: in vitro α-glucosidase inhibition; type: biochemical
Procedure: For in vitro α-glucosidase activity, samples were prepared by adding glucopyranoside to phosphate buffer solvent, and different concentrations of the synthesized compounds (31.25, 62.5, 125, 250, and 500 µg/ml), respectively, were added to this solution and then the enzyme glucosidase in distilled water (0.5 µg/ml) was also added to the above mixture. The reaction mixture thus prepared was subjected to incubation at 37°C for 20 minutes. The reaction was halted by adding HCl after incubation of the mixture. The intensity of the color was determined at 540 nm by spectrophotometer, and the formula given below was used for the determination of percent inhibition:(2) percent inhibition=absorbancecontrol−absorbancesample/absorbancecontrol×100.

[5] = target: α-amylase; experiment: in vitro α-amylase inhibition; type: biochemical
Procedure: The starch solution was added, following incubation of the mixture, and the reaction mixture thus prepared was kept in water bath at 100°C for some time. Microplate reader measured the intensity of the color at 656 nm. Following formula was used to determine percentage inhibition:(3) percent inhibition=absorbancecontrol−absorbancesample/absorbancecontrol×100.

[6] = ABTS scavenging activity; type: biochemical
Procedure: For the determination of the antioxidant activity of the synthesized compounds, the previously reported method for ABTS scavenging activity was used with slight modification. The stock solution of 2.4 mM of potassium per sulfate solution and 7 mM ABTS solution was prepared by mixing them in equal volumes for 16 h. The stock solution thus prepared was diluted using methyl alcohol to give absorption of 0.7 ± 0.02 units when studied at the wavelength of 734 nm using a spectrophotometer. Fresh ABTS solution was prepared for each ABTS scavenging assay. About 150 μL of the ABTS working solution was added to 50 μL of synthesized compounds and kept in darkness for 10 min. […] Methanol was used as blank, and standard ascorbic acid was run at the same time. The absorbance was calculated utilizing a microplate reader at 734 nm.

COc1ccc(Cl)cc1C(=O)NCCc1ccc(S(=O)(=O)NC(=O)NC2CCCCC2)cc1 [Glibenclamide, reference compound]
OGTT blood glucose, 0 minutes [1]: 151.5 mg/dL
OGTT blood glucose, 30 minutes [1]: 176.7 mg/dL
OGTT blood glucose, 60 minutes [1]: 214.3 mg/dL
OGTT blood glucose, 120 minutes [1]: 140.5 mg/dL
Change in body weight ([2]; dose 0.5 (μg/kg)): +10.3 Gm
Decrease in blood glucose after 15 days ([2]; dose 0.5 (μg/kg)): 275 mg/dL
Blood glucose level, 0 day ([2]; dose 0.5 (μg/kg)): 473 mg/dL
Blood glucose level, 4th day ([2]; dose 0.5 (μg/kg)): 303 mg/dL
Blood glucose level, 7th day ([2]; dose 0.5 (μg/kg)): 257 mg/dL
Blood glucose level, 10th day ([2]; dose 0.5 (μg/kg)): 212 mg/dL
Blood glucose level, 15th day ([2]; dose 0.5 (μg/kg)): 198 mg/dL

O=C1CCCCC1C1CC(=O)N(c2ccc(Br)cc2)C1=O (stereo not drawn) [BW3, (4-Bromophenyl)-3-(2-Oxocyclohexyl) Pyrrolidine-2,5-Dione]
IC50 (DPPH) [3]: 15.93 µg/mL (≈ 45.5 µM)
(%) DPPH inhibitions ([3]; 31.25 µg/ml): 57.69 ± 0.77^∗∗∗ %
(%) DPPH inhibitions ([3]; 62.50 µg/ml): 66.67 ± 0.61^∗∗∗ %
(%) DPPH inhibitions ([3]; 125 µg/ml): 71.79 ± 0.63^∗∗ %
(%) DPPH inhibitions ([3]; 250 µg/ml): 76.90 ± 0.48^∗ %
(%) DPPH inhibitions ([3]; 500 µg/ml): 83.03 ± 0.48^∗ %
IC50 (α-glucosidase) [4]: 12.15 µg/mL (≈ 34.7 µM)
% inhibitions (α-glucosidase) ([4]; 31.25 µg/ml): 57.47 ± 0.56^∗∗∗ %
% inhibitions (α-glucosidase) ([4]; 62.50 µg/ml): 63.28 ± 0.57^∗∗∗ %
% inhibitions (α-glucosidase) ([4]; 125 µg/ml): 67.90 ± 0.96^∗∗∗ %
% inhibitions (α-glucosidase) ([4]; 250 µg/ml): 72.08 ± 0.47^∗∗∗ %
% inhibitions (α-glucosidase) ([4]; 500 µg/ml): 77.85 ± 2.24^∗∗∗ %
IC50 (α-amylase) [5]: 18.20 µg/mL (≈ 52 µM)
% inhibitions (α-amylase) ([5]; 31.25 µg/ml): 54.67 ± 0.35^∗∗∗ %
% inhibitions (α-amylase) ([5]; 62.50 µg/ml): 62.16 ± 0.12^∗∗∗ %
% inhibitions (α-amylase) ([5]; 125 µg/ml): 67.62 ± 0.03^∗∗∗ %
% inhibitions (α-amylase) ([5]; 250 µg/ml): 71.36 ± 1.15^∗∗∗ %
% inhibitions (α-amylase) ([5]; 500 µg/ml): 75.35 ± 0.89^∗∗∗ %
IC50 (ABTS) [6]: 36.82 µg/mL (≈ 105 µM)
(%) ABTS inhibitions ([6]; 31.25 µg/ml): 48.42 ± 0.43^ns %
(%) ABTS inhibitions ([6]; 62.50 µg/ml): 53.33 ± 0.66^∗ %
(%) ABTS inhibitions ([6]; 125 µg/ml): 58.40 ± 0.82^∗∗∗ %
(%) ABTS inhibitions ([6]; 250 µg/ml): 64.90 ± 0.45^∗∗∗ %
(%) ABTS inhibitions ([6]; 500 µg/ml): 70.56 ± 1.06^∗∗∗ %
OGTT blood glucose, 0 minutes [1]: 156.2 mg/dL
OGTT blood glucose, 30 minutes [1]: 174.1 mg/dL
OGTT blood glucose, 60 minutes [1]: 196.3 mg/dL
OGTT blood glucose, 120 minutes [1]: 145.4 mg/dL
Change in body weight ([2]; dose 31.25 μg/kg): −8.4 Gm
Decrease in blood glucose after 15 days ([2]; dose 31.25 μg/kg): -39 mg/dL
Blood glucose level, 0 day ([2]; dose 31.25 μg/kg): 439 mg/dL
Blood glucose level, 4th day ([2]; dose 31.25 μg/kg): 446 mg/dL
Blood glucose level, 7th day ([2]; dose 31.25 μg/kg): 457 mg/dL
Blood glucose level, 10th day ([2]; dose 31.25 μg/kg): 468 mg/dL
Blood glucose level, 15th day ([2]; dose 31.25 μg/kg): 478 mg/dL
Change in body weight ([2]; dose 62.5 μg/kg): −6.2 Gm
Decrease in blood glucose after 15 days ([2]; dose 62.5 μg/kg): -56 mg/dL
Blood glucose level, 0 day ([2]; dose 62.5 μg/kg): 443 mg/dL
Blood glucose level, 4th day ([2]; dose 62.5 μg/kg): 465 mg/dL
Blood glucose level, 7th day ([2]; dose 62.5 μg/kg): 478 mg/dL
Blood glucose level, 10th day ([2]; dose 62.5 μg/kg): 493 mg/dL
Blood glucose level, 15th day ([2]; dose 62.5 μg/kg): 499 mg/dL
Change in body weight ([2]; dose 125 μg/kg): +5.3 Gm
Decrease in blood glucose after 15 days ([2]; dose 125 μg/kg): -29 mg/dL
Blood glucose level, 0 day ([2]; dose 125 μg/kg): 387 mg/dL
Blood glucose level, 4th day ([2]; dose 125 μg/kg): 437 mg/dL
Blood glucose level, 7th day ([2]; dose 125 μg/kg): 430 mg/dL
Blood glucose level, 10th day ([2]; dose 125 μg/kg): 424 mg/dL
Blood glucose level, 15th day ([2]; dose 125 μg/kg): 416 mg/dL
Change in body weight ([2]; dose 250 μg/kg): −5.1 Gm
Decrease in blood glucose after 15 days ([2]; dose 250 μg/kg): 35 mg/dL
Blood glucose level, 0 day ([2]; dose 250 μg/kg): 431 mg/dL
Blood glucose level, 4th day ([2]; dose 250 μg/kg): 419 mg/dL
Blood glucose level, 7th day ([2]; dose 250 μg/kg): 411 mg/dL
Blood glucose level, 10th day ([2]; dose 250 μg/kg): 403 mg/dL
Blood glucose level, 15th day ([2]; dose 250 μg/kg): 396 mg/dL
Change in body weight ([2]; dose 500 μg/kg): +2.5 Gm
Decrease in blood glucose after 15 days ([2]; dose 500 μg/kg): 49 mg/dL
Blood glucose level, 0 day ([2]; dose 500 μg/kg): 430 mg/dL
Blood glucose level, 4th day ([2]; dose 500 μg/kg): 420 mg/dL
Blood glucose level, 7th day ([2]; dose 500 μg/kg): 401 mg/dL
Blood glucose level, 10th day ([2]; dose 500 μg/kg): 387 mg/dL
Blood glucose level, 15th day ([2]; dose 500 μg/kg): 381 mg/dL

C[C@H]1O[C@H](O[C@H]2[C@H](O)[C@@H](O)[C@@H](O[C@H]3[C@H](O)[C@@H](O)C(O)O[C@@H]3CO)O[C@@H]2CO)[C@H](O)[C@@H](O)[C@@H]1N[C@H]1C=C(CO)[C@@H](O)[C@H](O)[C@H]1O (stereo partly drawn) [Acarbose, reference compound]
% inhibitions (α-glucosidase) ([4]; 31.25 µg/ml): 67.90 ± 0.45%
% inhibitions (α-glucosidase) ([4]; 62.50 µg/ml): 73.00 ± 0.30%
% inhibitions (α-glucosidase) ([4]; 125 µg/ml): 80.90 ± 0.60%
% inhibitions (α-glucosidase) ([4]; 250 µg/ml): 86.45 ± 0.90%
% inhibitions (α-glucosidase) ([4]; 500 µg/ml): 92.23 ± 0.22%
% inhibitions (α-amylase) ([5]; 31.25 µg/ml): 63.62 ± 0.58%
% inhibitions (α-amylase) ([5]; 62.50 µg/ml): 69.42 ± 1.55%
% inhibitions (α-amylase) ([5]; 125 µg/ml): 76.20 ± 0.49%
% inhibitions (α-amylase) ([5]; 250 µg/ml): 82.47 ± 0.71%
% inhibitions (α-amylase) ([5]; 500 µg/ml): 87.75 ± 0.42%

O=C1O[C@H]([C@@H](O)CO)C(O)=C1O [Ascorbic acid, reference compound]
IC50 (DPPH) [3]: 7.10 µg/mL (≈ 40.3 µM)
(%) DPPH inhibitions ([3]; 31.25 µg/ml): 68.42 ± 0.43%
(%) DPPH inhibitions ([3]; 62.50 µg/ml): 73.22 ± 1.28%
(%) DPPH inhibitions ([3]; 125 µg/ml): 79.52 ± 0.66%
(%) DPPH inhibitions ([3]; 250 µg/ml): 84.56 ± 0.45%
(%) DPPH inhibitions ([3]; 500 µg/ml): 90.65 ± 1.32%
IC50 (ABTS) [6]: 6.84 µg/mL (≈ 38.8 µM)
(%) ABTS inhibitions ([6]; 31.25 µg/ml): 63.89 ± 0.20%
(%) ABTS inhibitions ([6]; 62.50 µg/ml): 75.45 ± 0.90%
(%) ABTS inhibitions ([6]; 125 µg/ml): 77.61 ± 0.43%
(%) ABTS inhibitions ([6]; 250 µg/ml): 82.40 ± 0.20%
(%) ABTS inhibitions ([6]; 500 µg/ml): 87.08 ± 0.47%
